The values that follow are results of earlier work, collected in patent US8197866B1, “Herbal treatment for diabetes mellitus, type II” (priority 2009, dated 2012).

Data set [1] has as its system TPA-mediated tumor promotion.
Data set [2] concerns streptozocin-induced diabetes.

`O=c1cc(-c2ccc(O)cc2)oc2cc(O)cc(O)c12` [apigenin]: the “effect on TPA-mediated tumor promotion” value in data set [1] is listed as “inhibitory effect”.

`C[C@@H]1O[C@@H](OC[C@H]2O[C@@H](Oc3cc(O)cc4oc(-c5ccc(O)c(O)c5)cc(=O)c34)[C@H](O)[C@@H](O)[C@@H]2O)[C@H](O)[C@H](O)[C@H]1O` [luteolin 5-rutinoside]: the anti-diabetic activity entry in data set [2] is “marked anti-diabetic activity”.
